Experimental data reported in patent publication US20260248894A1, “COMBINATION THERAPY FOR PRETERM INFANTS” (Oak Hill Bio Ltd, priority 2022, published 2026).
Counter-ions that a name gives are not always drawn. Like-named read-outs stand apart in the source and are kept apart here.

Experiments:
[1] = target: T1, rhIGF-1/rhIGFBP-3 drug product (Homo sapiens, UniProt P05019+P17936, DEL119-195); test: Protein-specific (mass spectrometry-based) analyses of rhIGF-1/rhIGFBP-3 chemical compatibility and the final compatibility decision; assay type: physicochemical
T1 construct: purchased Takeda, Lexington, MA, USA

[2] = target: T1, rhIGF-1/rhIGFBP-3 drug product; test: In vitro physical compatibility of test medications mixed with rhIGF-1/rhIGFBP-3 (visual observation, OD320, pH, osmolality); assay type: physicochemical; conditions: for visual observation (and OD320) upon mixing: mixture with rhIGF-1/rhIGFBP-3 drug product
[3] = target: T1, rhIGF-1/rhIGFBP-3 drug product; test: Small-molecule chemical compatibility: small-molecule content post mixing by RP-HPLC-UV or ion chromatography; assay type: physicochemical; conditions: post mixing with rhIGF-1/rhIGFBP-3 drug product, last specified time point(s)
[4] = test system: insulin; conditions: cited from earlier work
[5] = test system: insulin; conditions: no compatibility data available with insulin
[6] = mixed with rhIGF-1/rhIGFBP-3 drug product at representative clinical doses, room temperature

T1 sequence (P05019 49-118 limits assumed, stated change not applied): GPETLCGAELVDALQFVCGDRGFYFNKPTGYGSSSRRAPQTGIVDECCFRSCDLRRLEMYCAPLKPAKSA
T1 sequence (P17936 28-291, stated change not applied): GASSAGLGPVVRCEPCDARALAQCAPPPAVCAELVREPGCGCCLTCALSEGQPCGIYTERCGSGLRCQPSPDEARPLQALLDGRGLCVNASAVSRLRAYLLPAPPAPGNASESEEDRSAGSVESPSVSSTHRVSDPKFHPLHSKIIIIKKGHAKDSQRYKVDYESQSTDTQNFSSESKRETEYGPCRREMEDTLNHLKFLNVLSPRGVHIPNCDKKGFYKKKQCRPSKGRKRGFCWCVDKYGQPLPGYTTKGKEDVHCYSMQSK

Row | Compound | physical compatibility with rhIGF-1/rhIGFBP-3 ([2]; conditions and doses tested) | Physical compatibility [2, 6] | Chemical compatibility for small-molecule content (RP-HPLC) [3] | further results
1 | Cl.NCCc1ccc(O)c(O)c1 [Dopamine hydrochloride] |  |  |  | effect on rhIGF-1/rhIGFBP-3 drug product in protein-specific analyses [1]: data demonstrated an impact on the rhIGF-; Physical compatibility [2]: No; pH change post mixing (in words) [2]: A dopamine dose-dependent physical change; physical compatibility with rhIGF-1/rhIGFBP-3 [2]: considered incompatible
2 | Cn1c(=O)c2c(ncn2C)n(C)c1=O.O=C(O)CC(O)(CC(=O)O)C(=O)O [Caffeine citrate] |  |  |  | Physical compatibility [2]: Yes^a; pH difference of mixed samples compared with the control [2]: demonstrated ~1.0 unit difference compared; physical compatibility with rhIGF-1/rhIGFBP-3 [2]: physical compatibility was established
3 | CC1(C)S[C@@H]2[C@H](NC(=O)[C@H](N)c3ccccc3)C(=O)N2[C@H]1C(=O)O [Ampicillin sodium] | considered incompatible | No | Yes (Chemical incompatibility was considered to be a loss of the small-molecule content of ~10% or more over the defined testing period) | pH change post mixing (in words) ([2]; mixture with rhIGF-1/rhIGFBP-3): Observed change in pH of rhIGF-1/rhIGFBP-3
4 | Insulin | physical compatibility was established | Yes | Yes (Chemical incompatibility was considered to be a loss of the small-molecule content of ~10% or more over the defined testing period) | 
5 | CC(CCc1ccc(O)cc1)NCCc1ccc(O)c(O)c1 (stereo not shown) [Dobutamine hydrochloride] | considered incompatible | No | Yes (Chemical incompatibility was considered to be a loss of the small-molecule content of ~10% or more over the defined testing period) | final compatibility decision informed by protein-specific studies / sodium (meta)bisulfite in the formulation [1]: medication is considered incompatible; visual observation (and OD320) upon mixing [2]: physical compatibility (no precipitation, no
6 | NC[C@H](O)c1ccc(O)c(O)c1 [Norepinephrine bitartrate] |  |  |  | pH change post mixing (in words) [2]: Only the lowest dose was physically; physical compatibility with rhIGF-1/rhIGFBP-3 [2]: considered incompatible
7 | Cc1ncc2n1-c1ccc(Cl)cc1C(c1ccccc1F)=NC2 [Midazolam, Midazolam hydrochloride] |  |  |  | compatibility with insulin [4]: established; Physical compatibility [2]: Yes; physical compatibility with rhIGF-1/rhIGFBP-3 [2]: physical compatibility was established
8 | rhIGF-1/rhIGFBP-3 drug product: recombinant human protein complex of insulin-like growth factor-1 (IGF-1) and insulin-like growth factor binding protein-3 (IGFBP-3) |  |  |  | pH value of the unmixed product ([2]; not in the mixture): 5.5
9 | OC(Cn1cncn1)(Cn1cncn1)c1ccc(F)cc1F [Fluconazole] | physical compatibility was established | Yes | Yes (Chemical incompatibility was considered to be a loss of the small-molecule content of ~10% or more over the defined testing period) | expected reaction on the basis of theoretical evaluation and the solution pH [5]: a reaction is not expected
10 | C[C@@H](O)[C@H]1C(=O)N2C(C(=O)O)=C(S[C@@H]3CN[C@H](C(=O)N(C)C)C3)[C@H](C)[C@H]12 [Meropenem] | considered incompatible | No | Yes (Chemical incompatibility was considered to be a loss of the small-molecule content of ~10% or more over the defined testing period) | pH change post mixing ([2]; mixture with rhIGF-1/rhIGFBP-3): Observed pH change of ~2.4 post mixing,
11 | NS(=O)(=O)c1cc(C(=O)O)c(NCc2ccco2)cc1Cl [Furosemide] | considered incompatible | No | Yes (Chemical incompatibility was considered to be a loss of the small-molecule content of ~10% or more over the defined testing period) | time after mixing to cloudiness / turbidity ([2]; mixture with rhIGF-1/rhIGFBP-3): ≤ 30 min; visual observation (and OD320) upon mixing [2]: Cloudiness observed
12 | Gentamicin |  |  | Yes (Chemical incompatibility was considered to be a loss of the small-molecule content of ~10% or more over the defined testing period) | 
13 | CC1(C)S[C@@H]2[C@H](NC(=O)Cc3ccccc3)C(=O)N2[C@H]1C(=O)[O-].[K+] [Penicillin G, Penicillin G potassium] | considered incompatible | No | Yes (Chemical incompatibility was considered to be a loss of the small-molecule content of ~10% or more over the defined testing period) | pH shift ([2]; highest penicillin G dose of 125,000 Units/kg/30 min): pH shift (up to 1.3 pH units for the highest
14 | NCC[C@H](O)C(=O)N[C@@H]1C[C@H](N)[C@@H](O[C@H]2O[C@H](CN)[C@@H](O)[C@H](O)[C@H]2O)[C@H](O)[C@H]1O[C@H]1O[C@H](CO)[C@@H](O)[C@H](N)[C@H]1O.O=S(=O)(O)O.O=S(=O)(O)O [Amikacin sulfate] | considered incompatible | No | Yes (Chemical incompatibility was considered to be a loss of the small-molecule content of ~10% or more over the defined testing period) | decrease in pH of mixtures compared with controls ([2]; mixture with rhIGF-1/rhIGFBP-3): Mixtures demonstrated a decrease in pH of ~0.6 units
15 | CN[C@H](CC(C)C)C(=O)N[C@H]1C(=O)N[C@@H](CC(N)=O)C(=O)N[C@H]2C(=O)N[C@H]3C(=O)N[C@H](C(=O)N[C@H](C(=O)O)c4cc(O)cc(O)c4-c4cc3ccc4O)[C@H](O)c3ccc(c(Cl)c3)Oc3cc2cc(c3O[C@@H]2O[C@H](CO)[C@@H](O)[C@H](O)[C@H]2O[C@H]2C[C@](C)(N)[C@H](O)[C@H](C)O2)Oc2ccc(cc2Cl)[C@H]1O [Vancomycin hydrochloride] |  |  |  | compatibility with insulin [4]: established; Physical compatibility [2]: Yes
